The subject of assay [1] is L6-myotubes. In words: Measurement of intracellular cAMP levels in differentiated L6-myotubes (Biological Example 3). The class given is cell-based. The settings on record: 0.25 h, intracellular cAMP; compound at 10 μM relative to isoproterenol at 10 μM. Here is the method: (§1) Compounds described in publications referenced and incorporated herein were screened in accordance with the procedures outlined in Biological example 2 and Biological example 3.
Differentiated L6-myotubes were serum-starved overnight and stimulated with isoprenaline or the test compound with a final concentration of 1×10^−5 M, for 15 min in stimulation buffer (HBSS supplemented with 1% BSA, 5 mM HEPES and 1 mM IBMX, pH 7.4). The medium was aspirated and 100 μL of 95% EtOH was added to each well of the 24-well plate and cells were kept at −20° C. overnight. The EtOH was allowed to evaporate and 500 μL of lysis buffer (1% BSA, 5 mM HEPES and 0.3% Tween-20, pH 7.4) was added to each well. The plate was kept at −80° C. for 30 min and then at −20° C. until the day of detection when the samples were thawed. Intracellular cAMP levels were detected using an alpha screen cAMP kit (6760635D from Perkin Elmer).

Assay [2] deals with L6-myotubes. The assay can be described thus: Glucose uptake in differentiated L6-myotubes (Biological Example 2). The following applies: glucose uptake; compound at 10 μM relative to isoproterenol at 10 μM; read-out: Biological example 2 (GU). In kind it is cell-based. The method, then:
as §1
Differentiated L6-myotubes were serum-starved overnight in medium containing 0.5% fatty-acid free BSA and stimulated with isoprenaline or the test compound, with a final concentration of 1×10^−5 M. After 1 h 40 min the cells were washed with warm glucose free medium or PBS twice and another portion of agonist was added to the glucose free medium. After 20 min the cells were exposed to 50 nM ^3H-2-deoxyglucose for 10 min before washed with ice cold glucose free medium or PBS three times and lysed with 0.2 M NaOH, 400 μL/well, for 1 h at 60° C. The cell lysate was mixed with 4 mL scintillation buffer (Emulsifier Safe, Perkin Elmer) and the radioactivity was detected in a […] (Tri-Carb 4810TR, Perkin Elmer).

Bounds are passed on as bounds.

`CCC[C@@H](C)NC[C@H](O)c1cccc(F)c1` [Compound 50, (R)-2-[(R)-1-methylbutylamino]-1-(m-fluorophenyl)-1-ethanol]: the Emax at 10 µM with L6-myotubes [1] is < 25%; in the assay on L6-myotubes [2], > 75%.

`CCC[C@H](C)NC[C@H](O)c1cccc(F)c1` [Compound 51]: the Emax at 10 µM in the assay on L6-myotubes [1] is < 25%; in the assay with L6-myotubes [2], > 75%.

Regarding `CCC[C@@H](C)NC[C@H](O)c1ccc(F)cc1` [Compound 52, (R)-2-[(R)-1-methylbutylamino]-1-(p-fluorophenyl)-1-ethanol], the Emax at 10 µM with L6-myotubes [1] is < 25%; with L6-myotubes [2], 50 to 75%.

For `CCC[C@H](C)NC[C@H](O)c1ccc(F)cc1` [Compound 53, (R)-2-[(S)-1-methylbutylamino]-1-(p-fluorophenyl)-1-ethanol], the Emax at 10 µM with L6-myotubes [1] was < 25%; in the assay with L6-myotubes [2] it was 50 to 75%.

Consider `CC(C)(C)NC[C@H](O)c1cccc(F)c1` [Compound 54, (R)-2-(tert-butylamino)-1-(m-fluorophenyl)-1-ethanol], for which the figures for the Emax at 10 µM with L6-myotubes [1] and with L6-myotubes [2] were < 25% and > 75%, respectively.

On to `CCCCNCC(O)c1cc(F)cc(F)c1` (centres unmarked) [Compound 55, 2-(butylamino)-1-(3,5-difluorophenyl)-1-ethanol], for which the Emax at 10 µM with L6-myotubes [1] was < 25%; in the assay with L6-myotubes [2] it was 50 to 75%.

In the case of `CCCCNCC(O)c1ccc(F)c(F)c1` (centres unmarked) [Compound 56, 2-(butylamino)-1-(3,4-difluorophenyl)-1-ethanol], the Emax at 10 µM in the assay on L6-myotubes [1] is < 25%; with L6-myotubes [2], 50 to 75%.

On to `CCC[C@@H]1CC[C@H]([C@H](O)c2cccc(F)c2)N1` [Compound 58], for which the figures for the Emax at 10 µM in the assay on L6-myotubes [1] and in the assay on L6-myotubes [2] were 25 to 50% and > 75%, respectively.

Consider `CCC[C@@H]1CCC[C@H]([C@H](O)c2cccc(F)c2)N1` [Compound 59, (R)-[(2R,6R)-6-propyl-2-piperidyl](m-fluorophenyl)methanol], for which the Emax at 10 µM was < 25% in the assay with L6-myotubes [1] and 25 to 50% in the assay on L6-myotubes [2].

On to `CCC[C@@H]1CCC[C@H]([C@@H](O)c2cccc(F)c2)N1` [Compound 60], for which the results for the Emax at 10 µM in the assay on L6-myotubes [1] and in the assay on L6-myotubes [2] were < 25% and 25 to 50%, respectively.

As to `CCCC(C)(C)NC[C@H](O)c1cccc(F)c1` [Compound 61, (R)-2-(1,1-dimethylbutylamino)-1-(m-fluorophenyl)-1-ethanol], the Emax at 10 µM is < 25% with L6-myotubes [1] and > 75% in the assay on L6-myotubes [2].

For the compound `CCCCNCC(O)c1cc[nH]c(=O)c1` (centres unmarked) [Compound 62, 4-[2-(butylamino)-1-hydroxyethyl]-2(1H)-pyridinone], the Emax at 10 µM is < 25% in the assay on L6-myotubes [1] and 25 to 50% in the assay on L6-myotubes [2].

For `CCCCNCC(O)c1ccc(=O)[nH]c1` (centres unmarked) [Compound 63, 5-[2-(butylamino)-1-hydroxyethyl]-2(1H)-pyridinone], the figures for the Emax at 10 µM with L6-myotubes [1] and with L6-myotubes [2] were < 25% and 25 to 50%, respectively.

Consider `CCC[C@H]1CCC[C@H]([C@H](O)c2cccc(O)c2)N1` [Compound 64, (R)-[(2R,6S)-6-propyl-2-piperidyl](m-hydroxyphenyl)methanol], for which the Emax at 10 µM with L6-myotubes [1] was < 25%; in the assay with L6-myotubes [2], > 75%.

As to `CCC[C@H]1CCC[C@H]([C@@H](O)c2ccc(F)c(F)c2)N1` [Compound 65], the Emax at 10 µM with L6-myotubes [1] was < 25%; in the assay on L6-myotubes [2] it was 25 to 50%.

For the compound `CCC[C@H]1CCC[C@H]([C@@H](O)c2cc(F)cc(F)c2)N1` [Compound 66], the results for the Emax at 10 µM in the assay on L6-myotubes [1] and in the assay on L6-myotubes [2] were < 25% and 25 to 50%, respectively.

`CCC[C@H]1CCC[C@H]([C@H](O)c2ccc(F)c(F)c2)N1` [Compound 67, (R)-[(2R,6S)-6-propyl-2-piperidyl](3,4-difluorophenyl)methanol]: the Emax at 10 µM in the assay on L6-myotubes [1] is < 25%; in the assay on L6-myotubes [2], 25 to 50%.

Take `CCC[C@H]1CCC[C@H]([C@H](O)c2cc(F)cc(F)c2)N1` [Compound 68]: the values for the Emax at 10 µM in the assay on L6-myotubes [1] and in the assay with L6-myotubes [2] were < 25% and 50 to 75%, respectively.

In the case of `CCC[C@H]1CCC[C@H]([C@H](O)c2cccc(F)c2)N1` [Compound 69], the Emax at 10 µM in the assay with L6-myotubes [1] is < 25%; in the assay on L6-myotubes [2], 50 to 75%.

For `CCC[C@H]1CCC[C@H]([C@@H](O)c2cccc(F)c2)N1` [Compound 70], the figures for the Emax at 10 µM in the assay with L6-myotubes [1] and in the assay on L6-myotubes [2] were < 25% and 50 to 75%, respectively.

Take `CCCCNC[C@H](O)c1csc(N)n1` [Compound 71, (S)-1-(2-amino-1,3-thiazol-4-yl)-2-(butylamino)-1-ethanol]: the values for the Emax at 10 µM with L6-myotubes [1] and in the assay with L6-myotubes [2] were < 25% and 25 to 50%, respectively.

On to `CCCCNC[C@H](O)c1csc(C(F)(F)F)n1` [Compound 72, (S)-2-(butylamino)-1-[2-(trifluoromethyl)-1,3-thiazol-4-yl]-1-ethanol], for which the values for the Emax at 10 µM in the assay with L6-myotubes [1] and with L6-myotubes [2] were < 25% and 25 to 50%, respectively.

Turning to `CCCCNC[C@H](O)c1ccnc(N)n1` [Compound 73, (S)-1-(2-amino-4-pyrimidinyl)-2-(butylamino)-1-ethanol], the Emax at 10 µM was < 25% in the assay with L6-myotubes [1] and 25 to 50% in the assay on L6-myotubes [2].

For the compound `CCCCNC[C@H](O)c1cnc(NC(=O)C(C)C)s1` [Compound 74, N-{5-[(S)-2-(butylamino)-1-hydroxyethyl]-1,3-thiazol-2-yl}2-methylpropionamide], the results for the Emax at 10 µM in the assay on L6-myotubes [1] and in the assay with L6-myotubes [2] were < 25% and 25 to 50%, respectively.

Turning to `CCCCNC[C@H](O)c1cnc(N)s1` [Compound 75, (S)-1-(2-amino-1,3-thiazol-5-yl)-2-(butylamino)-1-ethanol], the Emax at 10 µM is < 25% with L6-myotubes [1] and 25 to 50% with L6-myotubes [2].

As for `CC(C)(C)NC[C@H](O)c1cccc(F)c1F` [Compound 76, (R)-2-(tert-butylamino)-1-(2,3-difluorophenyl)-1-ethanol], the Emax at 10 µM with L6-myotubes [1] is 25 to 50%; in the assay on L6-myotubes [2], > 75%.

With `CCCCNC[C@H](O)c1cccc(F)c1F` [Compound 77, (R)-2-(butylamino)-1-(2,3-difluorophenyl)-1-ethanol], the Emax at 10 µM in the assay on L6-myotubes [1] is < 25%; with L6-myotubes [2] it was > 75%.

Turning to `CC(C)(C)NC[C@H](O)c1ccccc1F` [Compound 78, (R)-2-(tert-butylamino)-1-(o-fluorophenyl)-1-ethanol], the Emax at 10 µM is 25 to 50% in the assay on L6-myotubes [1] and > 75% with L6-myotubes [2].

Regarding `CCCCNC[C@H](O)c1ccccc1F` [Compound 79, (R)-2-(butylamino)-1-(o-fluorophenyl)-1-ethanol], the results for the Emax at 10 µM in the assay on L6-myotubes [1] and in the assay on L6-myotubes [2] were < 25% and > 75%, respectively.

Turning to `CC(C)(C)NC[C@H](O)c1ccc(F)cc1O` [Compound 80, (R)-2-(tert-butylamino)-1-(4-fluoro-2-hydroxyphenyl)-1-ethanol], the results for the Emax at 10 µM with L6-myotubes [1] and in the assay with L6-myotubes [2] were < 25% and 50 to 75%, respectively.

As to `CCCCNC[C@H](O)c1ccc(F)cc1O` [Compound 81, (R)-2-(butylamino)-1-(4-fluoro-2-hydroxyphenyl)-1-ethanol], the Emax at 10 µM is < 25% in the assay with L6-myotubes [1] and 50 to 75% with L6-myotubes [2].

Regarding `CC1(NC[C@H](O)c2cccc(F)c2)CC1` [Compound 82, (R)-1-(m-fluorophenyl)-2-(1-methylcyclopropylamino)-1-ethanol], the Emax at 10 µM was < 25% in the assay with L6-myotubes [1] and > 75% in the assay on L6-myotubes [2].

`CC1(NC[C@H](O)c2cccc(F)c2)CCC1` [Compound 83, (R)-1-(m-fluorophenyl)-2-(1-methylcyclobutylamino)-1-ethanol]: the Emax at 10 µM is 25 to 50% with L6-myotubes [1] and > 75% in the assay with L6-myotubes [2].

Take `CC(C)(C)NC[C@H](O)c1ccc(F)c(O)c1` [Compound 84, (R)-2-(tert-butylamino)-1-(4-fluoro-3-hydroxyphenyl)-1-ethanol]: the Emax at 10 µM in the assay with L6-myotubes [1] is 50 to 75%; with L6-myotubes [2], > 75%.

In the case of `CCCCNC[C@H](O)c1ccc(F)c(O)c1` [Compound 85, (R)-2-(butylamino)-1-(4-fluoro-3-hydroxyphenyl)-1-ethanol], the Emax at 10 µM with L6-myotubes [1] was < 25%; in the assay with L6-myotubes [2] it was > 75%.

As to `CC(C)(C)NC[C@H](O)c1cccc(O)c1F` [Compound 86, (R)-2-(tert-butylamino)-1-(2-fluoro-3-hydroxyphenyl)-1-ethanol], the Emax at 10 µM in the assay on L6-myotubes [1] and in the assay with L6-myotubes [2] was 50 to 75% throughout.

Turning to `CCCCNC[C@H](O)c1cccc(O)c1F` [Compound 87, (R)-2-(butylamino)-1-(2-fluoro-3-hydroxyphenyl)-1-ethanol], the Emax at 10 µM was 25 to 50% in the assay with L6-myotubes [1] and > 75% with L6-myotubes [2].

Turning to `CCCCNC[C@H](O)c1cnc(N)nc1` [Compound 89, (R)-1-(2-amino-5-pyrimidinyl)-2-(butylamino)-1-ethanol], the Emax at 10 µM is < 25% in the assay on L6-myotubes [1] and 50 to 75% with L6-myotubes [2].

As for `CCCCNC[C@H](O)c1cccc(N)c1F` [Compound 90, (R)-1-(3-amino-2-fluorophenyl)-2-(butylamino)-1-ethanol], the Emax at 10 µM with L6-myotubes [1] was < 25%; with L6-myotubes [2] it was 50 to 75%.

Take `CC(C)(C)NC[C@H](O)c1cccc(N)c1F` [Compound 91, (R)-1-(3-amino-2-fluorophenyl)-2-(tert-butylamino)-1-ethanol]: the results for the Emax at 10 µM in the assay with L6-myotubes [1] and in the assay on L6-myotubes [2] were 25 to 50% and > 75%, respectively.

Values taken from patent US20260216294A1, “BETA 2-ADRENERGIC RECEPTOR AGONISTS FOR TREATMENT OR PREVENTION OF MUSCLE WASTING” (ATROGI AB, priority 2023, published 2026).
